From PMC5114336, “Enhanced anti-tumour activity of the combination of the novel MEK inhibitor WX-554 and the novel PI3K inhibitor WX-037” (Cancer Chemotherapy and Pharmacology, 2016)
“And” between values parts separate entries of the source, which are not always exact repeats. Identical values can stand only once. “Also recorded” adds a separate entry of the source. Like-named read-outs stand apart in the source and are kept apart here.

Experiments:
HCT116 cells [1] = test: Sulforhodamine B (SRB) growth inhibition assay with median effect analysis, HCT116; assay type: cell-based, human; conditions: HCT116, single agent
Experimental: (§1) Growth was then measured using the Sulforhodamine B (SRB) method and analysed as described previously. The GI50 concentration was calculated based on a standard point to point curve with 1000 segments using GraphPad Prism software (California, USA). The data were analysed by median effect analysis using CalcuSyn software (Biosoft, Cambridgeshire, UK), which calculates the combination index of multiple drugs by an algebraic estimation algorithm.

HT29 cells [2] = test: Sulforhodamine B (SRB) growth inhibition assay with median effect analysis, HT29; assay type: cell-based, human
Experimental: as §1

[3] = test system: phosphorylation of ERK1/2, AKT, S6 and 4EBP1 in HCT116 cells; test: Western blotting of PI3K/AKT and MAPK signal transduction, HCT116; assay type: cell-based, human; conditions: HCT116, 24 h, 1x or 10x GI50, Western blot
Experimental: (§2) Western blots were prepared, probed with phospho-4EBP1 (Thr37/46) (#2855), phospho-p44/42 MAPK (Thr202/Tyr204) (#4370), phospho-AKT (Ser473) (#4060) or phospho-S6 ribosomal protein (Ser235/236) (#4858) monoclonal antibodies obtained from Cell Signalling Technology (New England BioLabs (UK) Ltd, Hertfordshire, UK) and developed as described previously. Blots were then stripped (100 mM 2-mercaptoethanol, 2% (w/v) SDS and 62.5 mM Tris pH6.8 at 55 °C for 30 min) and re-probed with the respective total monoclonal antibody (4EBP1 (53H11) (#9644), p44/42 MAPK (ERK1/2) (#4695), AKT (pan) (C67E7) (#4691) or S6 ribosomal protein (5g10) (#2217)) obtained from Cell Signalling Technology (New England BioLabs (UK) Ltd, Hertfordshire, UK) and developed as described above.

[4] = test system: phosphorylation of ERK1/2, AKT, S6 and 4EBP1 in HT29 cells; test: Western blotting of PI3K/AKT and MAPK signal transduction, HT29; assay type: cell-based, human; conditions: HT29, 24 h, 1x or 10x GI50, Western blot
Experimental: as §2

[5] = Pharmacokinetic study, plasma and tumour concentrations, HCT116 xenograft-bearing mice; assay type: in vivo
Experimental: (§3) Animal studies were all carried out using female athymic CD1 nude mice (Charles River, Kent, UK), implanted with HCT116 or HT29 xenografts (1 × 10^7 cells in 50 µl media injected subcutaneously into the right flank), maintained and handled in isolators under specific pathogen-free conditions.
(§4) Mice bearing HCT116 or HT29 human tumour xenografts were treated with 1 or 5 mg/kg WX-554, or 20 or 100 mg/kg WX-037, alone or in combination, and were bled by cardiac puncture under terminal anaesthesia at 6 or 24 h post-treatment (3 mice/time point). Blood was collected into heparinized tubes, and plasma was separated and stored at −20 °C until analysed. Tumours were removed, snap frozen in liquid nitrogen and stored at −80 °C prior to PK analyses. Samples were extracted with solid phase extraction (SPE) and analysed with high-performance liquid chromatography (HPLC) coupled with tandem mass spectrometry (MS/MS) by Wilex (Munich, Germany). The quantification limit for WX-554 was 1 ng/mL and within and between day variation was <15%. WinNonlin Software Version 4.0.1 (Pharsight Corporation, Peypin, France) was used for PK/PD modelling and non-compartmental analysis. Paired t tests were used to compare the different treatment groups, and differences with a p value ≤0.05 were considered statistically significant.

[6] = Pharmacokinetic study, plasma and tumour concentrations, HT29 xenograft-bearing mice; assay type: in vivo
Experimental: as §3, §4

[7] = test system: HCT116 human tumour xenografts; test: Anti-tumour activity in HCT116 xenograft-bearing mice; assay type: in vivo; conditions: 2 mg/kg WX-554 and/or 50 mg/kg WX-037 p.o. once daily for 14 days
Experimental: as §3
(§5) Mice bearing HCT116 human tumour xenografts were randomized into treatment groups and then treated by oral gavage with either the vehicle (10 ml/kg), 2 mg/kg WX-554, 50 mg/kg WX-037 or the combination of 2 mg/kg WX-554 and 50 mg/kg WX-037 once daily for 14 days. Tumour volume was monitored by calliper measurement using the equation a ^2 × b/2, where a is the smallest measurement and b the largest. Data are presented as median relative tumour volumes (RTV), where the tumour volume in each mouse on the initial day of treatment (day 0) is assigned an RTV value of 1. The time to RTV4 for each individual tumour was calculated based on a standard point to point curve with 1000 segments using GraphPad Prism software (CA, USA). Mann–Whitney U tests were used to compare the different groups, i.e., the control versus each treatment group, the single agents versus each other and each single agent versus their combination. Differences with a p value ≤0.05 were considered statistically significant.

[8] = Tolerability (body weight) in the HCT116 xenograft efficacy study; assay type: in vivo; conditions: HCT116 xenograft mice, 2 mg/kg WX-554 and/or 50 mg/kg WX-037 p.o. once daily for 14 days
Experimental: as §5
Based on the results of the PK study, the efficacy of 50 mg/kg of the PI3K inhibitor WX-037 and 2 mg/kg of the MEK inhibitor WX-554 given orally, as single agents and in combination, was assessed in HCT116 human tumour xenograft-bearing mice (Fig. 5). […] In this study, mice were treated daily for 14 days and tumour volumes were measured three times a week.

MEK1 = conditions: stated in Introduction, method and reference not given; read-out: half maximal inhibitory concentration (IC50), MEK1; cited from earlier work
MEK2 = conditions: stated in Introduction, method and reference not given; read-out: half maximal inhibitory concentration (IC50), MEK2; cited from earlier work
HCT116 cells [9] = conditions: HCT116, unpublished Wilex studies; read-out: GI50 (potency); cited from earlier work
HT29 cells [10] = conditions: HT29, unpublished Wilex studies; read-out: GI50 (potency); cited from earlier work
[11] = design: method as in earlier work; conditions: dose escalation study in healthy volunteers; cited from earlier work
[12] = design: method as in PMID 23587417, PMID 24434059; conditions: recent Phase I study; cited from earlier work
HT29 cells [13] = test: Clonogenic cytotoxicity assay, HT29
Excerpt: (§6) HCT116 and HT29 human colorectal cancer cells were obtained from the ATCC (American Type Culture Collection).
(§7) After growth for 10–14 days, colonies were fixed in methanol–acetic acid 3:1 (v/v) and stained with crystal violet (0.4% w/v). Colonies consisting of more than 50 cells were counted on an automated colony counter (Oxford Optronix, Oxford, UK). Two-tailed paired t tests were used to compare the different groups. Differences with a p < 0.05 were considered statistically significant.

HCT116 cells [14] = test: Clonogenic cytotoxicity assay, HCT116
Excerpt: as §6, §7

[15] = 1 mg/kg WX-554 + 20 mg/kg WX-037, single p.o. dose
[16] = 1 mg/kg WX-554 + 100 mg/kg WX-037, single p.o. dose
[17] = 1 mg/kg WX-554 alone, single p.o. dose
[18] = 5 mg/kg WX-554 + 20 mg/kg WX-037, single p.o. dose
[19] = 5 mg/kg WX-554 + 100 mg/kg WX-037, single p.o. dose
[20] = 5 mg/kg WX-554 alone, single p.o. dose

## NCC1CN(C(=O)c2c(Nc3ccc(I)cc3F)sc3ncccc23)C1 [WX-554]
HCT116 cells [1]; 72-h exposure, SRB, read-out: GI50 (half maximal growth inhibitory concentration)
  GI50: 0.038 µM
HCT116 cells [1]; determined in Supplementary Figure 1
  in vitro GI50 value: 0.018 µg/mL
HT29 cells [2]; GI50 HCT116 versus GI50 HT29
  fold difference in sensitivity, HT29 more sensitive than HCT116: 9 fold
HT29 cells [2]; HT29, single agent, 72-h exposure, SRB, read-out: GI50 (half maximal growth inhibitory concentration)
  GI50: 0.0043 µM and 0.004 µM
HT29 cells [2]; HT29, single agent, determined in Supplementary Figure 1
  in vitro GI50 value: 0.002 µg/mL
[3]
  reduction of ERK1/2 phosphorylation: reduced ERK1/2 phosphorylation at 1 and 10 times the GI50 concentration
[4]
  reduction of ERK1/2 phosphorylation: at 10 times the GI50 concentration in the HT29 cell line
[5]; [15]
  WX-554 Concentration ± SD, Plasma, 6 hours: 17 ± 9 ng/mL
  WX-554 Concentration ± SD, Plasma, 24 hours: 6 ± 6 ng/mL
  WX-554 Concentration ± SD, Tumour, 6 hours: 184 ± 62 ng/mL
  WX-554 Concentration ± SD, Tumour, 24 hours: 141 ± 58 ng/mL
[5]; [16]
  WX-554 Concentration ± SD, Plasma, 6 hours: 20 ± 10 ng/mL
  WX-554 Concentration ± SD, Plasma, 24 hours: 10 ± 7 ng/mL
  WX-554 Concentration ± SD, Tumour, 6 hours: 319 ± 139 ng/mL
  WX-554 Concentration ± SD, Tumour, 24 hours: 464 ± 263 ng/mL
[5]; [17]
  WX-554 Concentration ± SD, Plasma, 6 hours: 19 ± 5 ng/mL
  WX-554 Concentration ± SD, Plasma, 24 hours: 2 ± 1 ng/mL
  WX-554 Concentration ± SD, Tumour, 6 hours: 478 ± 97 ng/mL
  WX-554 Concentration ± SD, Tumour, 24 hours: 309 ± 30 ng/mL
[5]; [18]
  WX-554 Concentration ± SD, Plasma, 6 hours: 74 ± 27 ng/mL
  WX-554 Concentration ± SD, Plasma, 24 hours: 28 ± 7 ng/mL
  WX-554 Concentration ± SD, Tumour, 6 hours: 673 ± 453 ng/mL
  WX-554 Concentration ± SD, Tumour, 24 hours: 1240 ± 282 ng/mL
[5]; [19]
  WX-554 Concentration ± SD, Plasma, 6 hours: 98 ± 18 ng/mL
  WX-554 Concentration ± SD, Plasma, 24 hours: 68 ± 19 ng/mL
  WX-554 Concentration ± SD, Tumour, 6 hours: 804 ± 353 ng/mL
  WX-554 Concentration ± SD, Tumour, 24 hours: 1583 ± 369 ng/mL
[5]; [20]
  WX-554 Concentration ± SD, Plasma, 6 hours: 130 ± 37 ng/mL
  WX-554 Concentration ± SD, Plasma, 24 hours: 11 ± 2 ng/mL
  WX-554 Concentration ± SD, Tumour, 6 hours: 1724 ± 442 ng/mL
  WX-554 Concentration ± SD, Tumour, 24 hours: 360 ± 223 ng/mL
[6]; [15]
  WX-554 Concentration ± SD, Plasma, 6 hours: 101 ± 39 ng/mL
  WX-554 Concentration ± SD, Plasma, 24 hours: 5 ± 3 ng/mL
  WX-554 Concentration ± SD, Tumour, 6 hours: 1180 ± 597 ng/mL
  WX-554 Concentration ± SD, Tumour, 24 hours: 447 ± 80 ng/mL
[6]; [16]
  WX-554 Concentration ± SD, Plasma, 6 hours: 19 ± 14 ng/mL
  WX-554 Concentration ± SD, Plasma, 24 hours: 13 ± 7 ng/mL
  WX-554 Concentration ± SD, Tumour, 6 hours: 159 ± 102 ng/mL
  WX-554 Concentration ± SD, Tumour, 24 hours: 407 ± 66 ng/mL
[6]; [17]
  WX-554 Concentration ± SD, Plasma, 6 hours: 21 ± 1 ng/mL
  WX-554 Concentration ± SD, Plasma, 24 hours: 3 ± 1 ng/mL
  WX-554 Concentration ± SD, Tumour, 6 hours: 510 ± 40 ng/mL
  WX-554 Concentration ± SD, Tumour, 24 hours: 419 ± 134 ng/mL
[6]; [18]
  WX-554 Concentration ± SD, Plasma, 6 hours: 81 ± 26 ng/mL
  WX-554 Concentration ± SD, Plasma, 24 hours: 52 ± 58 ng/mL
  WX-554 Concentration ± SD, Tumour, 6 hours: 1143 ± 416 ng/mL
  WX-554 Concentration ± SD, Tumour, 24 hours: 2493 ± 979 ng/mL
[6]; [19]
  WX-554 Concentration ± SD, Plasma, 6 hours: 47 ± 33 ng/mL
  WX-554 Concentration ± SD, Plasma, 24 hours: 49 ± 10 ng/mL
  WX-554 Concentration ± SD, Tumour, 6 hours: 446 ± 239 ng/mL
  WX-554 Concentration ± SD, Tumour, 24 hours: 2423 ± 584 ng/mL
[6]; [20]
  WX-554 Concentration ± SD, Plasma, 6 hours: 118 ± 25 ng/mL
  WX-554 Concentration ± SD, Plasma, 24 hours: 13 ± 3 ng/mL
  WX-554 Concentration ± SD, Tumour, 6 hours: 2748 ± 378 ng/mL
  WX-554 Concentration ± SD, Tumour, 24 hours: 1916 ± 207 ng/mL
[7]
  tumour growth compared to vehicle-treated control tumours: caused tumour growth delay; also recorded: induced tumour growth delay
[8]
  tolerability / toxicity: non-toxic
MEK1
  IC50: 0.0047 µM
MEK2
  IC50: 0.011 µM
HCT116 cells [9]
  GI50: 0.029 µM
HT29 cells [10]
  GI50: 0.0072 µM
[11]
  safety and tolerability: safe and tolerable
[12]
  bioavailability: very good bioavailability
HT29 cells [13]; HT29
  LC50 fold higher than the corresponding GI50: ~372 fold
HT29 cells [13]; HT29, single agent 10 µM, 72 h, clonogenic assay
  cell kill (cytotoxicity, cell death): 75%
HT29 cells [13]; read-out: mean lethal concentration (LC50), HT29, 72-h exposure, clonogenic assay
  CC50: 1.6 µM
HCT116 cells [14]; HCT116
  LC50 fold higher than the corresponding GI50: approximately 16 fold
HCT116 cells [14]; HCT116, single agent 10 µM, 72 h, clonogenic assay
  cell kill (cytotoxicity, cell death): 67%
HCT116 cells [14]; read-out: mean lethal concentration (LC50), HCT116, 72-h exposure, clonogenic assay
  CC50: 0.6 µM
